Experiments:
[1] = Exemplary case: AD patient given daily glibenclamide by monthly depot intramuscular injection, neurological testing; assay type: in vivo, human; details: person with AD; 1.0 mg per day via monthly depot intramuscular injection
Description: The following exemplary descriptions illustrate ways to implement the methods and treatments disclosed herein. […] A diagnosis of AD is made as other causes are ruled out. […] Depot injection is chosen in order to optimize patient compliance.

[2] = Exemplary case: type 2 diabetic patient with AD given daily glibenclamide, metformin ceased; assay type: in vivo, human; details: 10 mg per day
Description: The following exemplary descriptions illustrate ways to implement the methods and treatments disclosed herein.
A type 2 diabetic […] presents to their family physician with complaints of forgetfulness and increasing confusion. They are being treated with metformin and diet controls for their Type 2 diabetes. The patient is diagnosed with AD upon referral to a geriatrician and upon clinical, laboratory and imaging investigations.

Structure (SMILES): COc1ccc(Cl)cc1C(=O)NCCc1ccc(S(=O)(=O)NC(=O)NC2CCCCC2)cc1 [glibenclamide, 5-chloro-N-[2-[4-(cyclohexylcarbamoylsulfamoyl)phenyl]ethyl]-2-methoxy-benzamide]
- Neurological testing: AD symptoms [1]: stabilization of symptoms
- Blood glucose measurements and HbA1C levels [2]: stable blood glucose measurements and HbA1C levels
- Episodes of forgetfulness [2]: episodes of forgetfulness are waning

Reference: US10004703B2, “Treatment of alzheimer's disease using compounds that reduce the activity of non-selective CA++ activated ATP-sensitive cation channels regulated by SUR1 channels” (Biogen Chesapeake LLC, priority 2006, dated 2018)
